Measured values from the supplement of paper PMC8612539.

Tested on: Escherichia coli
Assay: minimum inhibitory concentration (MIC)
Method: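 Broth microdilution MIC (Sensititre BOPO7F bovine plate, CLSI methods) of 19 antimicrobials against field isolates of P. multocida, M. haemolytica, H. somni (deep nasopharyngeal swabs) and E. coli, Enterococcus spp. (rectal swabs) from weaned dairy heifers. Incubation 16-24 h at 35 C. MIC is the lowest concentration preventing visible growth. Values with <= or > lie at the tested range limits. Trimethoprim-sulfamethoxazole is given as the trimethoprim component of a 1:19 mixture.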

[1] = isolate (source animal id): 100
[2] = isolate (source animal id): 101
[3] = isolate (source animal id): 102
[4] = isolate (source animal id): 103
[5] = isolate (source animal id): 104
[6] = isolate (source animal id): 105
[7] = isolate (source animal id): 106
[8] = isolate (source animal id): 107
[9] = isolate (source animal id): 108
[10] = isolate (source animal id): 109
[11] = isolate (source animal id): 110
[12] = isolate (source animal id): 111
[13] = isolate (source animal id): 112
[14] = isolate (source animal id): 113
[15] = isolate (source animal id): 114
[16] = isolate (source animal id): 115
[17] = isolate (source animal id): 116
[18] = isolate (source animal id): 117
[19] = isolate (source animal id): 118
[20] = isolate (source animal id): 119
[21] = isolate (source animal id): 120
[22] = isolate (source animal id): 121
[23] = isolate (source animal id): 122
[24] = isolate (source animal id): 123
[25] = isolate (source animal id): 124
[26] = isolate (source animal id): 125
[27] = isolate (source animal id): 126
[28] = isolate (source animal id): 127
[29] = isolate (source animal id): 128
[30] = isolate (source animal id): 129
[31] = isolate (source animal id): 130
[32] = isolate (source animal id): 131
[33] = isolate (source animal id): 132
[34] = isolate (source animal id): 133
[35] = isolate (source animal id): 134
[36] = isolate (source animal id): 135
[37] = isolate (source animal id): 136
[38] = isolate (source animal id): 137
[39] = isolate (source animal id): 138
[40] = isolate (source animal id): 139
[41] = isolate (source animal id): 140
[42] = isolate (source animal id): 141
[43] = isolate (source animal id): 142
[44] = isolate (source animal id): 143
[45] = isolate (source animal id): 144
[46] = isolate (source animal id): 145
[47] = isolate (source animal id): 146
[48] = isolate (source animal id): 147
[49] = isolate (source animal id): 148
[50] = isolate (source animal id): 149
[51] = isolate (source animal id): 150
[52] = isolate (source animal id): 151
[53] = isolate (source animal id): 152
[54] = isolate (source animal id): 153
[55] = isolate (source animal id): 154
[56] = isolate (source animal id): 155
[57] = isolate (source animal id): 156
[58] = isolate (source animal id): 157
[59] = isolate (source animal id): 158
[60] = isolate (source animal id): 159
[61] = isolate (source animal id): 160
[62] = isolate (source animal id): 161
[63] = isolate (source animal id): 162
[64] = isolate (source animal id): 163
[65] = isolate (source animal id): 164
[66] = isolate (source animal id): 165
[67] = isolate (source animal id): 166
[68] = isolate (source animal id): 167
[69] = isolate (source animal id): 168
[70] = isolate (source animal id): 169
[71] = isolate (source animal id): 170
[72] = isolate (source animal id): 171
[73] = isolate (source animal id): 172
[74] = isolate (source animal id): 173
[75] = isolate (source animal id): 174
[76] = isolate (source animal id): 175
[77] = isolate (source animal id): 176
[78] = isolate (source animal id): 177
[79] = isolate (source animal id): 178
[80] = isolate (source animal id): 179
[81] = isolate (source animal id): 180
[82] = isolate (source animal id): 181
[83] = isolate (source animal id): 182
[84] = isolate (source animal id): 183
[85] = isolate (source animal id): 184
[86] = isolate (source animal id): 185
[87] = isolate (source animal id): 186
[88] = isolate (source animal id): 187
[89] = isolate (source animal id): 188

Measured: minimum inhibitory concentration

CN1C[C@@H]2C[C@H]1CN2c1cc2c(cc1F)c(=O)c(C(=O)O)cn2C1CC1 [Danofloxacin]
0.5 µg/mL: isolate (source animal id): 14 | [19] | [33] | [47] | [55] | [57]
≤ 0.12 µg/mL: isolate (source animal id): 8 | isolate (source animal id): 10 | isolate (source animal id): 11 | isolate (source animal id): 13 | isolate (source animal id): 15 | isolate (source animal id): 16 | isolate (source animal id): 98 | isolate (source animal id): 99 | [1] | [2] | [3] | [4] | [5] | [6] | [8] | [9] | [10] | [11] | [13] | [15] | [18] | [22] | [23] | [24] | [26] | [28] | [29] | [31] | [34] | [35] | [36] | [37] | [41] | [42] | [43] | [46] | [50] | [51] | [52] | [53] | [54] | [56] | [58] | [59] | [60] | [61] | [62] | [64] | [65] | [66] | [67] | [68] | [69] | [70] | [71] | [72] | [73] | [74] | [75] | [76] | [77] | [78] | [79] | [80] | [81] | [82] | [83] | [84] | [85] | [86] | [87] | [88]
0.25 µg/mL: [40] | [49]
1 µg/mL: [16] | [21] | [30] | [38] | [44]
> 1 µg/mL: isolate (source animal id): 9 | isolate (source animal id): 12 | [7] | [12] | [14] | [17] | [20] | [25] | [27] | [32] | [39] | [45] | [48] | [63] | [89]

CCN1CCN(c2cc3c(cc2F)c(=O)c(C(=O)O)cn3C2CC2)CC1 [Enrofloxacin]
0.25 µg/mL: [40] | [49]
≤ 0.12 µg/mL: isolate (source animal id): 8 | isolate (source animal id): 10 | isolate (source animal id): 11 | isolate (source animal id): 13 | isolate (source animal id): 15 | isolate (source animal id): 16 | isolate (source animal id): 98 | isolate (source animal id): 99 | [1] | [2] | [3] | [4] | [5] | [6] | [8] | [9] | [10] | [11] | [13] | [15] | [18] | [22] | [23] | [24] | [26] | [28] | [29] | [31] | [34] | [35] | [36] | [37] | [41] | [42] | [43] | [46] | [50] | [51] | [52] | [53] | [54] | [56] | [58] | [59] | [60] | [61] | [62] | [64] | [65] | [66] | [67] | [68] | [69] | [70] | [71] | [72] | [73] | [74] | [75] | [76] | [77] | [78] | [79] | [80] | [81] | [82] | [83] | [84] | [85] | [86] | [87] | [88]
1 µg/mL: [14] | [16] | [17] | [21] | [30] | [44] | [57]
0.5 µg/mL: isolate (source animal id): 14 | [19] | [33] | [38] | [47] | [55]
2 µg/mL: [32] | [89]
> 2 µg/mL: isolate (source animal id): 9 | isolate (source animal id): 12 | [7] | [12] | [20] | [25] | [27] | [39] | [45] | [48] | [63]

CS(=O)(=O)c1ccc([C@@H](O)[C@@H](CF)NC(=O)C(Cl)Cl)cc1 [Florfenicol]
8 µg/mL: isolate (source animal id): 13 | [36] | [68] | [70] | [76]
2 µg/mL: isolate (source animal id): 11 | isolate (source animal id): 98 | [69] | [73]
> 8 µg/mL: isolate (source animal id): 9 | isolate (source animal id): 12 | isolate (source animal id): 14 | isolate (source animal id): 15 | isolate (source animal id): 16 | [1] | [2] | [3] | [5] | [6] | [7] | [8] | [9] | [10] | [11] | [13] | [14] | [16] | [17] | [18] | [19] | [20] | [21] | [22] | [23] | [24] | [25] | [26] | [27] | [28] | [29] | [30] | [31] | [32] | [33] | [34] | [35] | [37] | [38] | [39] | [40] | [42] | [43] | [44] | [45] | [46] | [47] | [48] | [49] | [51] | [52] | [53] | [54] | [55] | [56] | [57] | [58] | [59] | [60] | [61] | [62] | [63] | [64] | [65] | [66] | [67] | [74] | [78] | [79] | [82] | [84] | [86] | [88] | [89]
4 µg/mL: isolate (source animal id): 8 | isolate (source animal id): 10 | isolate (source animal id): 99 | [4] | [12] | [15] | [41] | [50] | [71] | [72] | [75] | [77] | [80] | [81] | [83] | [85] | [87]
